Experimental data published in publication PMC5218480 (PLoS ONE, 2017).

Tested on: MV-4-11 cells
Assay: Gene expression microarray analysis (Affymetrix PrimeView) and GSEA
Assay type: cell-based, human
Set-up: RFU PODN (11730768_x_at) / Fold change /veh PODN (11730768_x_at) / RFU LINC00158 (11744669_a_at) / Fold change /veh LINC00158 (11744669_a_at) / RFU DUSP10 (11751237_a_at) / Fold change /veh DUSP10 (11751237_a_at) / RFU ID3 (11757404_x_at) / Fold change /veh ID3 (11757404_x_at) / RFU PLEKHG5 (11737974_s_at) / Fold change /veh PLEKHG5 (11737974_s_at) / RFU LRRC4B (11730491_at) / Fold change /veh LRRC4B (11730491_at) / RFU GIMAP4 (11747438_a_at) / Fold change /veh GIMAP4 (11747438_a_at) / RFU KRT8 (11758183_x_at) / Fold change /veh KRT8 (11758183_x_at) / RFU CNN1 (11734310_a_at) / Fold change /veh CNN1 (11734310_a_at) / RFU VPS37D (11726825_at) / Fold change /veh VPS37D (11726825_at) / RFU C10orf10 (11716522_x_at) / Fold change /veh C10orf10 (11716522_x_at) / RFU KIR2DL2 /// KIR2DL4 /// KIR2DL5A /// KIR2DL5B /// KIR2DS1 /// KIR2DS2 /// KIR2DS3 /// KIR2DS4 /// KIR3DL3 /// KIR3DL3 /// KIR3DS1 (11738374_at) / Fold change /veh KIR2DL2 /// KIR2DL4 /// KIR2DL5A /// KIR2DL5B /// KIR2DS1 /// KIR2DS2 /// KIR2DS3 /// KIR2DS4 /// KIR3DL3 /// KIR3DL3 /// KIR3DS1 (11738374_at) / RFU C1QL1 (11718748_at) / Fold change /veh C1QL1 (11718748_at) / RFU TMPRSS4 (11747572_a_at) / Fold change /veh TMPRSS4 (11747572_a_at) / RFU HAMP (11756126_x_at) / Fold change /veh HAMP (11756126_x_at) / RFU RNFT2 (11725882_a_at) / Fold change /veh RNFT2 (11725882_a_at) / RFU NR4A2 (11747474_a_at) / Fold change /veh NR4A2 (11747474_a_at) / RFU ABCC12 (11746883_a_at) / Fold change /veh ABCC12 (11746883_a_at) / RFU TMEM136 (11760407_x_at) / Fold change /veh TMEM136 (11760407_x_at) / RFU CLDN22 /// WWC2 (11732394_at) / Fold change /veh CLDN22 /// WWC2 (11732394_at) / RFU HLA-DPB1 (11760878_x_at) / Fold change /veh HLA-DPB1 (11760878_x_at) / RFU SPINT1 (11716480_a_at) / Fold change /veh SPINT1 (11716480_a_at) / RFU GAP43 (11754022_s_at) / Fold change /veh GAP43 (11754022_s_at) / RFU A4GNT (11735810_at) / Fold change /veh A4GNT (11735810_at) / RFU PRB3 (11715151_x_at) / Fold change /veh PRB3 (11715151_x_at) / RFU TUBB4B (11761932_at) / Fold change /veh TUBB4B (11761932_at) / RFU CAPN14 (11732068_a_at) / Fold change /veh CAPN14 (11732068_a_at) / RFU TMCC2 (11721928_a_at) / Fold change /veh TMCC2 (11721928_a_at) / RFU IRGQ (11745062_a_at) / Fold change /veh IRGQ (11745062_a_at) / RFU FAM174B (11720279_a_at) / Fold change /veh FAM174B (11720279_a_at) / RFU TMPRSS4 (11748680_a_at) / Fold change /veh TMPRSS4 (11748680_a_at) / RFU FAM212B (11763350_a_at) / Fold change /veh FAM212B (11763350_a_at) / RFU PLEKHG5 (11743358_a_at) / Fold change /veh PLEKHG5 (11743358_a_at) / RFU ZSCAN30 (11745921_a_at) / Fold change /veh ZSCAN30 (11745921_a_at) / RFU CMKLR1 (11741424_a_at) / Fold change /veh CMKLR1 (11741424_a_at) / RFU LOC101060620 /// MAPK8IP1 (11723275_at) / Fold change /veh LOC101060620 /// MAPK8IP1 (11723275_at) / RFU SPTSSB (11747773_x_at) / Fold change /veh SPTSSB (11747773_x_at) / RFU PRSS12 (11739890_at) / Fold change /veh PRSS12 (11739890_at) / RFU BIN1 (11741810_x_at) / Fold change /veh BIN1 (11741810_x_at) / RFU WNT11 (11732464_a_at) / Fold change /veh WNT11 (11732464_a_at) / RFU C10orf10 (11716521_a_at) / Fold change /veh C10orf10 (11716521_a_at) / RFU C5orf56 (11738089_at) / Fold change /veh C5orf56 (11738089_at) / RFU CYB561 (11721691_x_at) / Fold change /veh CYB561 (11721691_x_at) / RFU ANKRD19P (11752326_a_at) / Fold change /veh ANKRD19P (11752326_a_at) / RFU OR2T12 /// OR2T33 /// OR2T8 (11738714_s_at) / Fold change /veh OR2T12 /// OR2T33 /// OR2T8 (11738714_s_at) / RFU VCAN (11748164_a_at) / Fold change /veh VCAN (11748164_a_at) / RFU JSRP1 (11732532_at) / Fold change /veh JSRP1 (11732532_at) / RFU KRTAP10-11 (11738290_x_at) / Fold change /veh KRTAP10-11 (11738290_x_at) / RFU MYO3A (11730013_a_at) / Fold change /veh MYO3A (11730013_a_at) / RFU EBF3 (11725865_a_at) / Fold change /veh EBF3 (11725865_a_at) / RFU CAMK2N1 (11719241_x_at) / Fold change /veh CAMK2N1 (11719241_x_at) / RFU C5orf56 (11738088_a_at) / Fold change /veh C5orf56 (11738088_a_at) / RFU OLFML3 (11715873_a_at) / Fold change /veh OLFML3 (11715873_a_at) / RFU LOC100653217 /// NTM (11731650_a_at) / Fold change /veh LOC100653217 /// NTM (11731650_a_at) / RFU MAPK11 (11762145_a_at) / Fold change /veh MAPK11 (11762145_a_at) / RFU FIZ1 (11724087_x_at) / Fold change /veh FIZ1 (11724087_x_at) / RFU OASL (11726364_x_at) / Fold change /veh OASL (11726364_x_at) / RFU SOX15 (11748057_x_at) / Fold change /veh SOX15 (11748057_x_at) / RFU CD79A (11719716_a_at) / Fold change /veh CD79A (11719716_a_at) / RFU HIST1H1D (11736915_at) / Fold change /veh HIST1H1D (11736915_at) / RFU CASKIN2 (11723855_a_at) / Fold change /veh CASKIN2 (11723855_a_at) / RFU LOC730098 (11760151_x_at) / Fold change /veh LOC730098 (11760151_x_at) / RFU OR4N2 (11742367_at) / Fold change /veh OR4N2 (11742367_at) / RFU PRRT2 (11749266_a_at) / Fold change /veh PRRT2 (11749266_a_at) / RFU SNX32 (11753110_a_at) / Fold change /veh SNX32 (11753110_a_at) / RFU CDHR5 (11726645_a_at) / Fold change /veh CDHR5 (11726645_a_at) / RFU RCAN1 (11760418_a_at) / Fold change /veh RCAN1 (11760418_a_at) / RFU FAM167A (11723789_a_at) / Fold change /veh FAM167A (11723789_a_at) / RFU FAM26E (11764081_at) / Fold change /veh FAM26E (11764081_at) / RFU ISYNA1 (11749810_s_at) / Fold change /veh ISYNA1 (11749810_s_at) / RFU ACY1 (11761880_at) / Fold change /veh ACY1 (11761880_at) / RFU 11764098_at / Fold change /veh 11764098_at / RFU SAMD14 (11745864_x_at) / Fold change /veh SAMD14 (11745864_x_at) / RFU NPB (11741838_a_at) / Fold change /veh NPB (11741838_a_at) / RFU TMPRSS6 (11731388_a_at) / Fold change /veh TMPRSS6 (11731388_a_at) / RFU KRTAP10-2 (11738614_at) / Fold change /veh KRTAP10-2 (11738614_at) / RFU ARHGAP8 /// PRR5-ARHGAP8 (11727945_x_at) / Fold change /veh ARHGAP8 /// PRR5-ARHGAP8 (11727945_x_at) / RFU KRTAP5-7 /// NADSYN1 (11734609_at) / Fold change /veh KRTAP5-7 /// NADSYN1 (11734609_at) / RFU RASL12 (11751679_a_at) / Fold change /veh RASL12 (11751679_a_at) / RFU CDKN2B (11736163_a_at) / Fold change /veh CDKN2B (11736163_a_at) / RFU PRF1 (11729649_at) / Fold change /veh PRF1 (11729649_at) / RFU, ZNF638 /// ZNF638-IT1 / Fold change vs veh, ZNF638 /// ZNF638-IT1 / RFU, PANK3 / Fold change vs veh, PANK3 / RFU, SH3YL1 / Fold change vs veh, SH3YL1 / RFU, ZEB2 / Fold change vs veh, ZEB2 / RFU, NRIP1 / Fold change vs veh, NRIP1 / RFU, PTTG1IP / Fold change vs veh, PTTG1IP / RFU, CAPN2 / Fold change vs veh, CAPN2 / RFU, MED14 / Fold change vs veh, MED14 / RFU, SNORA58 / Fold change vs veh, SNORA58 / RFU, C1orf63 / Fold change vs veh, C1orf63 / RFU, LRRFIP1 / Fold change vs veh, LRRFIP1 / RFU, NDUFAF7 / Fold change vs veh, NDUFAF7 / RFU, SLC12A2 / Fold change vs veh, SLC12A2 / RFU, IBTK / Fold change vs veh, IBTK / RFU, ESF1 / Fold change vs veh, ESF1 / Fold change vs veh, TMEM50B / RFU, TAOK1 / Fold change vs veh, TAOK1 / RFU, ACBD3 / Fold change vs veh, ACBD3 / RFU, TMA16 / Fold change vs veh, TMA16 / RFU, RWDD3 / Fold change vs veh, RWDD3 / RFU, BCAT1 / Fold change vs veh, BCAT1 / RFU, EDEM3 / Fold change vs veh, EDEM3 / RFU, TMEM33 / Fold change vs veh, TMEM33 / RFU, WDR75 / Fold change vs veh, WDR75 / RFU, AHCTF1 / Fold change vs veh, AHCTF1 / RFU, TFRC / Fold change vs veh, TFRC / RFU, ZDHHC17 / Fold change vs veh, ZDHHC17 / RFU, NOM1 / Fold change vs veh, NOM1 / RFU, ARL8B / Fold change vs veh, ARL8B / RFU, ZBTB11 / Fold change vs veh, ZBTB11 / RFU, TAMM41 / Fold change vs veh, TAMM41 / RFU, KIAA1704 /// LOC100996395 / Fold change vs veh, KIAA1704 /// LOC100996395 / RFU, ING1 / Fold change vs veh, ING1 / RFU, TRMT61B / Fold change vs veh, TRMT61B / RFU, FUBP3 / Fold change vs veh, FUBP3 / RFU, TP53 / Fold change vs veh, TP53 / RFU, TNKS2 / Fold change vs veh, TNKS2 / RFU, ZFP14 / Fold change vs veh, ZFP14 / RFU, ACTR2 / Fold change vs veh, ACTR2 / RFU, PPP3R1 / Fold change vs veh, PPP3R1 / RFU, PIK3R1 / Fold change vs veh, PIK3R1 / RFU, HNRNPA1 / Fold change vs veh, HNRNPA1 / RFU, RNF170 / Fold change vs veh, RNF170 / RFU, ZNF28 / Fold change vs veh, ZNF28 / RFU, RNGTT / Fold change vs veh, RNGTT / RFU, OGT / Fold change vs veh, OGT / RFU, BRD1 / Fold change vs veh, BRD1 / RFU, MARS / Fold change vs veh, MARS / RFU, ZNF655 / Fold change vs veh, ZNF655 / RFU, FAHD1 / Fold change vs veh, FAHD1 / RFU, BDP1 / Fold change vs veh, BDP1 / RFU, LRRCC1 / Fold change vs veh, LRRCC1 / RFU, ARID1A / Fold change vs veh, ARID1A / RFU, ZNF146 / Fold change vs veh, ZNF146 / RFU, ZNF330 / Fold change vs veh, ZNF330 / RFU, GPN3 / Fold change vs veh, GPN3 / RFU, C9orf123 / Fold change vs veh, C9orf123 / RFU, N4BP2L2 / Fold change vs veh, N4BP2L2 / RFU, ARFIP1 / Fold change vs veh, ARFIP1 / RFU, FAM179B / Fold change vs veh, FAM179B / RFU, BCL10 / Fold change vs veh, BCL10 / RFU, UHRF1BP1L / Fold change vs veh, UHRF1BP1L / RFU, BET1 / Fold change vs veh, BET1 / RFU, CNOT2 / Fold change vs veh, CNOT2 / RFU, ZNF268 / Fold change vs veh, ZNF268 / Fold change vs veh, ZNF507 / RFU, DGCR2 / Fold change vs veh, DGCR2 / RFU, WDSUB1 / Fold change vs veh, WDSUB1 / Fold change vs veh, HSP90B1 /// MIR3652 / RFU, ADSS / Fold change vs veh, ADSS / RFU, GK / Fold change vs veh, GK / RFU, ZNF148 / Fold change vs veh, ZNF148 / RFU, TAF9 / Fold change vs veh, TAF9 / RFU, SLC1A5 / Fold change vs veh, SLC1A5 / RFU, SLMO2 / Fold change vs veh, SLMO2 / RFU, ABCC4 / Fold change vs veh, ABCC4 / RFU, LOC101060439 /// RAP1B / Fold change vs veh, LOC101060439 /// RAP1B / RFU, RFX7 / Fold change vs veh, RFX7 / RFU, GTPBP10 / Fold change vs veh, GTPBP10 / RFU, CNEP1R1 / Fold change vs veh, CNEP1R1 / RFU, BIVM-ERCC5 /// ERCC5 / Fold change vs veh, BIVM-ERCC5 /// ERCC5 / RFU, ILF3 / Fold change vs veh, ILF3 / RFU 11762660_at / Fold change /veh 11762660_at / RFU VCAN (11757783_s_at) / Fold change /veh VCAN (11757783_s_at) / RFU DDX43 (11728927_at) / Fold change /veh DDX43 (11728927_at) / RFU KRT8 (11758188_x_at) / Fold change /veh KRT8 (11758188_x_at) / RFU NKD1 (11759106_at) / Fold change /veh NKD1 (11759106_at) / RFU SRD5A1 (11742802_a_at) / Fold change /veh SRD5A1 (11742802_a_at) / RFU TPSAB1 /// TPSB2 (11721975_s_at) / Fold change /veh TPSAB1 /// TPSB2 (11721975_s_at) / RFU GSTM3 (11746129_a_at) / Fold change /veh GSTM3 (11746129_a_at) / RFU IL23R (11737362_x_at) / Fold change /veh IL23R (11737362_x_at) / RFU TMEM51 (11727254_a_at) / Fold change /veh TMEM51 (11727254_a_at) / RFU PIWIL2 (11732686_x_at) / Fold change /veh PIWIL2 (11732686_x_at) / RFU ORM1 (11744905_x_at) / Fold change /veh ORM1 (11744905_x_at) / RFU CCDC152 (11743942_at) / Fold change /veh CCDC152 (11743942_at) / RFU ECM1 (11717891_a_at) / Fold change /veh ECM1 (11717891_a_at) / RFU IL23R (11748794_a_at) / Fold change /veh IL23R (11748794_a_at) / RFU TNFAIP8L3 (11732012_x_at) / Fold change /veh TNFAIP8L3 (11732012_x_at) / RFU MBOAT4 (11741988_at) / Fold change /veh MBOAT4 (11741988_at) / RFU 11764193_at / Fold change /veh 11764193_at / RFU TMEM53 (11763286_at) / Fold change /veh TMEM53 (11763286_at) / RFU MAGEB2 (11727129_at) / Fold change /veh MAGEB2 (11727129_at) / RFU TMEM200A (11744735_a_at) / Fold change /veh TMEM200A (11744735_a_at) / RFU CCDC152 (11751479_a_at) / Fold change /veh CCDC152 (11751479_a_at) / RFU FAM211A (11726209_a_at) / Fold change /veh FAM211A (11726209_a_at) / RFU RGS16 (11746705_a_at) / Fold change /veh RGS16 (11746705_a_at) / RFU VCAN (11755009_s_at) / Fold change /veh VCAN (11755009_s_at) / RFU RHOB (11743442_s_at) / Fold change /veh RHOB (11743442_s_at) / RFU RGS16 (11720943_a_at) / Fold change /veh RGS16 (11720943_a_at) / RFU RGS16 (11720944_at) / Fold change /veh RGS16 (11720944_at) / RFU, VPS4B / Fold change vs veh, VPS4B / RFU, CREB1 / Fold change vs veh, CREB1 / RFU, DNAJC13 / Fold change vs veh, DNAJC13 / RFU, GNAQ / Fold change vs veh, GNAQ / RFU, CDK5R1 / Fold change vs veh, CDK5R1 / RFU, ZRANB3 / Fold change vs veh, ZRANB3 / RFU, CUL4A / Fold change vs veh, CUL4A / RFU, CCNY / Fold change vs veh, CCNY / RFU, UFL1 / Fold change vs veh, UFL1 / RFU, COG3 / Fold change vs veh, COG3 / RFU, DIAPH2 / Fold change vs veh, DIAPH2 / RFU, SKA2 / Fold change vs veh, SKA2 / RFU, AFF3 / Fold change vs veh, AFF3 / RFU, LMF1 / Fold change vs veh, LMF1 / RFU, IPO11 / Fold change vs veh, IPO11 / RFU, DFFB / Fold change vs veh, DFFB / RFU, FOXP1 / Fold change vs veh, FOXP1 / RFU, CARD8 / Fold change vs veh, CARD8 / RFU, STRN3 / Fold change vs veh, STRN3 / RFU, ADK / Fold change vs veh, ADK / RFU, RASSF2 / Fold change vs veh, RASSF2 / RFU, WIPF1 / Fold change vs veh, WIPF1 / RFU, LARP1B / Fold change vs veh, LARP1B / RFU, RASA1 / Fold change vs veh, RASA1 / RFU, RB1 / Fold change vs veh, RB1 / RFU, PPFIA1 / Fold change vs veh, PPFIA1 / RFU, MAT2A / Fold change vs veh, MAT2A / RFU, CCT5 / Fold change vs veh, CCT5 / RFU, WDR92 / Fold change vs veh, WDR92 / RFU, CUX1 / Fold change vs veh, CUX1 / RFU, TTC7A / Fold change vs veh, TTC7A / RFU, TMEM135 / Fold change vs veh, TMEM135 / RFU, DEPTOR / Fold change vs veh, DEPTOR / RFU, CPM / Fold change vs veh, CPM / RFU, DNAJB6 / Fold change vs veh, DNAJB6 / RFU, CACNA2D3 / Fold change vs veh, CACNA2D3 / RFU, DTX4 / Fold change vs veh, DTX4 / RFU, TFCP2 / Fold change vs veh, TFCP2 / RFU, GMCL1 /// GMCL1P1 / Fold change vs veh, GMCL1 /// GMCL1P1 / RFU, AEBP2 / Fold change vs veh, AEBP2 / RFU, SNHG1 /// SNORD22 /// SNORD25 /// SNORD26 /// SNORD27 /// SNORD28 /// SNORD29 /// SNORD31 / Fold change vs veh, SNHG1 /// SNORD22 /// SNORD25 /// SNORD26 /// SNORD27 /// SNORD28 /// SNORD29 /// SNORD31 / Fold change (Aza/veh), C12orf56 (ProbeSet 11735607_a_at) / Fold change (ACY-1035/veh), C12orf56 (ProbeSet 11735607_a_at) / Fold change (Aza/veh), FGFR1OP (ProbeSet 11751329_s_at) / Fold change (ACY-1035/veh), FGFR1OP (ProbeSet 11751329_s_at) / Fold change (Aza/veh), VPS36 (ProbeSet 11739960_a_at) / Fold change (ACY-1035/veh), VPS36 (ProbeSet 11739960_a_at) / RFU SYPL1 (11715823_x_at) / Fold change /veh SYPL1 (11715823_x_at) / RFU IGFBP7 (11715501_s_at) / Fold change /veh IGFBP7 (11715501_s_at) / RFU REEP3 (11722064_at) / Fold change /veh REEP3 (11722064_at) / RFU IGLL1 (11728026_x_at) / Fold change /veh IGLL1 (11728026_x_at): dose or concentration left out as unconfirmed
Settings: ProbeSet 11725217_a_at; LIST B

`Nc1ccc(-c2cccs2)cc1NC(=O)c1ccc2c(c1)cc(C1CC1)n2CCN1CCOCC1` [ACY-1035] was tested, and the “Fold change vs veh, WDSUB1” value was 1.02.
